Laboratory results as given in patent US20150272939A1, “Identification of Small Molecule Inhibitors of Jumonji AT-Rich Interactive Domain 1A (JARID1A) and 1B (JARID1B) Histone Demethylase” (Yale University, priority 2012, published 2015).

Assays:
JARID1B = biological target: T1, JARID1B (Homo sapiens, UniProt Q9UGL1); assay: FLAG-JARID1B histone demethylase assay with AlphaScreen detection (HTS and dose response); format: biochemical; conditions: for inhibition at 20 µM: high-throughput screen, compound 20 μM, standard demethylase conditions (10 μM α-KG, 50 μM Fe (II)), read-out: Inhibitory effect (percent); for Validation result of HTS active: effect of the compound in the JARID1B AlphaScreen demethylase assay / Assay Signal (percent): validation of HTS actives; for Validation result of HTS active: effect of the compound in the JARID1B AlphaScreen demethylase assay: total signal before subtraction of artifact signal; for Assay − Artifact Signal (percent): assay signal minus artifact signal; for Assay Signal (percent): effect of compound in JARID1B AlphaScreen assay;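 on Assay Signal (percent): compound tested at 20 µM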;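 on Assay − Artifact Signal (percent): compound tested at 20 µM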;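 on all read-outs here: FLAG-tagged JARID1B at 4 nM acting on a biotinylated H3K4me3 peptide, demethylation read by AlphaScreen luminescence, with hits checked against bio-H3K4me2 without enzyme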
T1 construct: The FLAG tagged full length JARID1B enzyme was expressed in Sf21 insect cells using FLAG-JARID1B baculoviruses; FLAG (N); made in house; host or cells: Sf21 insect cells (baculovirus)

[1] = AlphaScreen counterscreen against bio-H3K4me2 peptide in the absence of enzyme (artifact signal); conditions: for Artifact signal: effect of the compound when it is incubated with bio-H3K4me2 peptide: counterscreen, no enzyme; for Artifact Signal (percent): effect of the compound when incubated with bio-H3K4me2 peptide (counterscreen, no enzyme);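 on all read-outs here: counterscreen run without enzyme against bio-H3K4me2 peptide to remove false positive hits from the JARID1 demethylase AlphaScreen screen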

T1 sequence (Q9UGL1 whole entry): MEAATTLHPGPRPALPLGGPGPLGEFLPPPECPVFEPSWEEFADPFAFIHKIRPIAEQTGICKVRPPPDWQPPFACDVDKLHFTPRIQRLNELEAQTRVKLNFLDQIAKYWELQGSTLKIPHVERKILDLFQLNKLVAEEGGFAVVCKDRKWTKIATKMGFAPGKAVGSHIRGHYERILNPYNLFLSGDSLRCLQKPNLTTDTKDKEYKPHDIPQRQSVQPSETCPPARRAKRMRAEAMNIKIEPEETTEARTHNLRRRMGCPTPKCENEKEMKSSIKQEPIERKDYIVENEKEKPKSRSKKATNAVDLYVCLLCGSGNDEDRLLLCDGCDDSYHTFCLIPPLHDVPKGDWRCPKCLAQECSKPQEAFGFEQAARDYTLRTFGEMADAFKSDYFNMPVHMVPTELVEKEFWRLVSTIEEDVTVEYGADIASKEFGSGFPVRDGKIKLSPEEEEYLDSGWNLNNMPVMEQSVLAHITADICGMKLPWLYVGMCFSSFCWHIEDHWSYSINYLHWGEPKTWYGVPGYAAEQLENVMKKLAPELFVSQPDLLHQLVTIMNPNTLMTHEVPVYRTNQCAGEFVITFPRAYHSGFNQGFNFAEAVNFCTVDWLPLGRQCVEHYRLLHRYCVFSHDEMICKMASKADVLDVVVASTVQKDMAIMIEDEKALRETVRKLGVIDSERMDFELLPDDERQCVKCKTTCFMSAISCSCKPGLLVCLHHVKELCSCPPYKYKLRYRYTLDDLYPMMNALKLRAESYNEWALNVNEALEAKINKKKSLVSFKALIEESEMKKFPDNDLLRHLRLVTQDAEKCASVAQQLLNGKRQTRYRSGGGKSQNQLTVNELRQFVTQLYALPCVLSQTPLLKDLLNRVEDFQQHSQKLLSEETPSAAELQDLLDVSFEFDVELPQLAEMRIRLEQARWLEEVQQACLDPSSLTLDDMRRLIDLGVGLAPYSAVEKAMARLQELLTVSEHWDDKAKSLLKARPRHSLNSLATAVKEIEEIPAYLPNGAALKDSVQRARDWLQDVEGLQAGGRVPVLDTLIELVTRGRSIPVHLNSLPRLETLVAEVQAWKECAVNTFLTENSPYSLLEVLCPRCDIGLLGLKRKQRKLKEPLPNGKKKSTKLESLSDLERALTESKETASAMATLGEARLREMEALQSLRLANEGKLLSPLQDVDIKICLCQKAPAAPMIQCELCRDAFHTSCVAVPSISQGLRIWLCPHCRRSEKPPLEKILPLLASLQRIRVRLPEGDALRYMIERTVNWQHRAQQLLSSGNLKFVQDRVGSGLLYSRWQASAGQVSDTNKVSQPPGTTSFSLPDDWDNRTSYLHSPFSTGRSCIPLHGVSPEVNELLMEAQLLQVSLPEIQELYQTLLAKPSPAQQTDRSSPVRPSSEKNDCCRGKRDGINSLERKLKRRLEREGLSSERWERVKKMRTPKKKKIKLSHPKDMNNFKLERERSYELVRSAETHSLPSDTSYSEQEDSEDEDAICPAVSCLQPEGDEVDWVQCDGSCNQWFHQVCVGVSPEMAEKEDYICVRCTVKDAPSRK

Compound | inhibition at 20 µM (JARID1B) [%] | Validation result of HTS active: effect of the compound in the JARID1B AlphaScreen demethylase assay (JARID1B) | Artifact signal: effect of the compound when it is incubated with bio-H3K4me2 peptide [1] | Assay − Artifact Signal (percent) (JARID1B) [%] | Assay Signal (percent) (JARID1B) [%] | Artifact Signal (percent) [1] [%]
O=C(O)CSc1nc2cc(F)c(N3CCOCC3)cc2[nH]1 [YU151409] | 45.1 | 4.03 | −0.23 |  |  | 
COc1cc(C(=S)N2CC(C)OC(C)C2)cc(OC)c1O (stereo not drawn) [YU151441] | 30.8 |  |  | 16.81 | 12.98 | −3.82
Oc1cccc(C(=S)N2CCN(Cc3ccccc3)CC2)c1 [YU151559] | 36.9 |  |  | 18.39 | 27.61 | 9.22
COC(=O)Nc1ccc(S(=O)(=O)N2CCCCCC2)cc1 [YU151614] | 85.5 | −1.67 | −4.92 |  |  | 
CC(=O)Oc1c([N+](=O)[O-])cc2c(c1Br)CCCC2 [YU151714] | 32.3 |  |  | 12.20 | 13.44 | 1.24
Cc1nn2c(=O)[nH]c3sc4c(c3c2nc1=O)CC(C)(C)OC4 [YU152236] | 51.6 |  |  | 43.69 | 49.40 | 5.71
Nc1c([N+](=O)[O-])cc(F)c(N2CCOCC2)c1Br [YU152451] | 74.6 | 2.82 | −3.09 |  |  | 
COC(=O)C1=C(C)NC(=O)C1(Nc1nccs1)C(F)(F)F (stereo not drawn) [YU152562] | 39.4 | −8.43 | −15.40 |  |  | 
CCOc1cc(Cl)c(S(=O)(=O)n2ccnc2)cc1Cl [YU152583] | 45.9 | 1.32 | −4.74 |  |  | 
COc1cc(C=O)cc(Cl)c1OCc1cccc([N+](=O)[O-])c1 [YU152587] | 98.2 | −1.32 | −2.67 |  |  | 
CCCCOc1ccc(NC(=O)CSc2nnnn2C)cc1 [YU152624] | 37.7 | −1.90 | −4.45 |  |  | 
N#Cc1c(NC(=O)c2cnn3cccnc23)sc2c1CCCC2 [YU152893] | 84.5 | 9.21 | 1.62 |  |  | 
C=CCN(CC=C)C(=S)Nc1sc(C)c(C)c1C(=O)OC [YU153003] | 65.6 |  |  | 16.80 | 23.56 | 6.76
CCCSc1nc2c3c(sc2c(=O)[nH]1)CC(C)(CC)OC3 (stereo not drawn) [YU153031] | 97 |  |  | 9.19 | 9.27 | 0.09
O=C(O[C@@H]1Cc2c(O)cc(O)cc2O[C@@H]1c1ccc(O)c(O)c1)c1cc(O)c(O)c(O)c1 [YU153085, EPICATECHIN MONOGALLATE, reference compound] |  |  |  | 8.72 | 94.59 | 85.87
O=C(O[C@@H]1Cc2c(O)cc(O)cc2O[C@@H]1c1cc(O)c(O)c(O)c1)c1cc(O)c(O)c(O)c1 [YU153090, EPIGALLOCATECHIN-3- MONOGALLATE, reference compound] |  | 95.83 | 90.25 |  |  | 
C#CCOc1c(Cl)cc(C(=S)N2CCOCC2)cc1OC [YU153110] | 45.2 |  |  | 37.96 | 34.87 | −3.09
O=C(NC1=NC(=O)C(F)(C(F)(F)F)S1)NC1CCCCC1 (stereo not drawn) [YU153281] | 55.3 |  |  | 23.51 | 25.46 | 1.95
CCOc1c(CNc2ccc(N3CCCC3)cc2)cccc1OC [YU153287] | 54.2 |  |  | 11.21 | 28.35 | 17.14
O=c1c(O)c(-c2ccc(O)c(O)c2)oc2c(O[C@@H]3O[C@H](CO)[C@@H](O)[C@H](O)[C@H]3O)c(O)cc(O)c12 [YU153353, GOSSYPIN, reference compound] |  |  |  | 37.81 | 99.61 | 61.80
O=c1c2cc(O)c(O)cc2oc2cc(O)c([C@@H]3O[C@H](CO)[C@@H](O)[C@H](O)[C@H]3O)c(O)c12 [YU153356, MANGIFERIN, reference compound] |  |  |  | 21.62 | 98.21 | 76.59
c1ccc(-c2nn3c(Cn4cnc5ccccc54)nnc3s2)cc1 [YU153935] | 40.5 |  |  | 21.66 | 14.67 | −6.99
c1cncc(-c2nn3c(Cn4cnc5ccccc54)nnc3s2)c1 [YU154091] | 40 |  |  | 24.37 | 29.87 | 5.50
N#CC(C#N)=Cc1cc(O)c(O)c(O)c1 [YU154832, TYRPHOSTIN 25, reference compound] | 53.7 |  |  | 17.87 | 23.08 | 5.21
Oc1cc(O)cc(/C=C/c2ccc(O)c(O)c2)c1 [YU154843, PICEATANNOL, reference compound] | 34 |  |  | 18.12 | 13.28 | −4.85

Next, values leading:

inhibition at 20 µM (JARID1B) [%] | Validation result of HTS active: effect of the compound in the JARID1B AlphaScreen demethylase assay (JARID1B) | Artifact signal: effect of the compound when it is incubated with bio-H3K4me2 peptide [1] | Assay − Artifact Signal (percent) (JARID1B) [%] | Assay Signal (percent) (JARID1B) [%] | Artifact Signal (percent) [1] [%] | Compound
35 |  |  | 14.61 | 16.26 | 1.65 | O=C(Cn1c(=O)oc2ccccc21)Nc1cccc([N+](=O)[O-])c1 [YU151591]
84.4 | 9.33 | 5.15 |  |  |  | O=C(O)c1cc2cc(Cc3ccccc3Cl)ccc2oc1=O [YU151859]
39.4 | 6.95 | 1.46 |  |  |  | Cc1ccc(NC(=O)CC2SC3=NCCCN3C2=O)c(C)c1 (stereo not drawn) [YU152183]
60.1 |  |  | 11.28 | 5.25 | −6.03 | Cc1ccc(C)c(NS(=O)(=O)c2ccc3[nH]c(=O)oc3c2)c1 [YU152226]
41.5 | −1.53 | −6.86 |  |  |  | O=C(NCc1ccccn1)c1ccc(NC(=O)c2ccco2)cc1 [YU152560]
99.6 | 9.13 | 4.29 |  |  |  | Cc1cccc(OCC(=O)Nc2ccccc2OC(F)F)c1C [YU152564]
99 | 6.08 | 0.22 |  |  |  | COc1ccccc1NC(=O)COc1ccc(CO)cc1Cl [YU152649]
96.7 | 0.53 | −2.69 |  |  |  | CN1C(=O)c2ccc(NC(=O)c3ccc4c(c3)OCO4)cc2C1=O [YU152920]
102 |  |  | 11.37 | 16.52 | 5.15 | O=C(NCc1ccccc1)c1ccc(N2CCCC2)c([N+](=O)[O-])c1 [YU153074]
101 |  |  | 8.37 | 12.52 | 4.15 | Cc1cc(C(=O)Nc2c(C)n(C)n(-c3ccccc3)c2=O)c(C)o1 [YU153128]
33.9 |  |  | 14.96 | 11.41 | −3.54 | Fc1cccc(-c2nn3c(-c4ccccc4Cl)nnc3s2)c1 [YU153729]
 | 8.44 | 0.54 |  |  |  | Cn1c(=O)n(C)c2cc(S(=O)(=O)NNc3ccccc3)ccc21 [YU153899]
41.2 | 1.57 | −2.05 |  |  |  | CN(C)CCn1c2c(c3ccccc31)CCCn1cnnc1-2.Cl [YU153907]
45 |  |  | 23.65 | 28.23 | 4.58 | O=C(NC1CCCCC1)c1ccc(NC(=O)c2ccccc2O)cc1 [YU154737]
50.3 |  |  | 30.24 | 38.57 | 8.32 | O=C(O)c1cc(N(Cc2ccccc2O)Cc2cc(O)ccc2O)ccc1O [YU154829, LAVENDUSTIN A, reference compound]
